Read-outs that look alike come from different tables or passages of the source.
Columns and labels:
Escherichia coli JM109 = details: aerobic culture, LB liquid medium, 37° C.
Protocol: (§1) A growth inhibition test in aerobic culture was performed to examine the influence of phenol on Corynebacterium glutamicum, Escherichia coli, and Pseudomonas putida. Pseudomonas putida S12, which was used for the test, is reported to be a solvent-resistant strain. In the report, disclosed is an unparalleled technology using the strain as a host in phenol production.
Escherichia coli JM109 was applied to LB agar medium (1% polypeptone, 0.5% yeast extract, 0.5% NaCl and 1.5% agar) and was left stand in the dark at 37° C. for 15 hours.
An inoculation loop of the Escherichia coli JM109 grown on a plate as above was inoculated into a test tube containing 10 mL of LB liquid medium (1% polypeptone, 0.5% yeast extract, and 0.5% NaCl), and aerobic culture was performed with shaking at 37° C. for 13 hours.
(§2) The Escherichia coli JM109 grown in the above conditions was inoculated into 100 mL of LB liquid medium in such a way that the initial bacterial cell concentration would be OD610=0.05, phenol was added at the same time in such a way that the final concentration would be 0, 0.16, or 0.20 mM, and aerobic culture was performed with shaking at 37° C. The growth of bacterial cells was determined by absorbance measurement at OD610.

Pseudomonas putida F1 = details: aerobic culture, LB (+glucose) liquid medium, 30° C.
Protocol: as §1
(§3) Pseudomonas putida F1 and S12 were applied to LB agar medium (1% polypeptone, 0.5% yeast extract, 0.5% NaCl and 1.5% agar) and were left stand in the dark at 30° C. for 15 hours.
(§4) An inoculation loop of each of the Pseudomonas putida F1 and S12 grown on a plate as above was inoculated into a test tube containing 10 mL of LB (+glucose) liquid medium (1% polypeptone, 0.5% yeast extract, 0.5% NaCl and 0.4% glucose), and aerobic culture was performed with shaking at 30° C. for 13 hours.
as §2, with “The Pseudomonas putida F1 and S12” for “The Escherichia coli JM109”, “conditions were each” for “conditions was”, “LB (+glucose)” for “LB”, “0, 0.10,” for “0, 0.16,”, “at 30°” for “at 37°”

Pseudomonas putida S12 = details: aerobic culture, LB (+glucose) liquid medium, 30° C.
Protocol: as §1, §3, §4
as §2, with “The Pseudomonas putida F1 and S12” for “The Escherichia coli JM109”, “conditions were each” for “conditions was”, “LB (+glucose)” for “LB”, “0, 0.10,” for “0, 0.16,”, “at 30°” for “at 37°”

[1] = tested on: Corynebacterium glutamicum R; details: aerobic culture, A liquid medium, 33° C.
Protocol: as §1
Corynebacterium glutamicum R was applied to A agar medium (2 g of (NH2)2CO, 7 g of (NH4)2SO4, 0.5 g of KH2PO4, 0.5 g of K2HPO4, 0.5 g of MgSO4.7H2O, 1 mL of 0.06% (w/v) Fe2SO4.7H2O+0.042% (w/v) MnSO4.2H2O, 1 mL of 0.02% (w/v) biotin solution, 2 mL of 0.01% (w/v) thiamin solution, 2 g of yeast extract, 7 g of vitamin assay casamino acid, 40 g of glucose, and 15 g of agar were suspended in 1 L of distilled water) and was left stand in the dark at 33° C. for 15 hours.
An inoculation loop of the Corynebacterium glutamicum R grown on a plate as above was inoculated into a test tube containing 10 mL of A liquid medium (2 g of (NH2)2CO, 7 g of (NH4)2SO4, 0.5 g of KH2PO4, 0.5 g of K2HPO4, 0.5 g of MgSO4.7H2O, 1 mL of 0.06% (w/v) Fe2SO4.7H2O+0.042% (w/v) MnSO4.2H2O, 1 mL of 0.02% (w/v) biotin solution, 2 mL of 0.01% (w/v) thiamin solution, 2 g of yeast extract, 7 g of vitamin assay casamino acid, and 40 g of glucose were suspended in 1 L of distilled water) and was aerobically cultured with shaking at 33° C. for 13 hours.
as §2, with “Corynebacterium glutamicum R” for “Escherichia coli JM109”, “A” for “LB”, “0.16, 0.2, 0.24,” for “0.16,”, “0.32” for “0.20”, “33°” for “37°”

SMILES: Oc1ccccc1 [phenol]
- proliferation of Escherichia coli (OD610) (Escherichia coli JM109; 0.16% phenol): significantly affected
- proliferation of Escherichia coli (OD610) (Escherichia coli JM109; 0.20% phenol): completely inhibited
- proliferation of Pseudomonas putida F1 (OD610) (Pseudomonas putida F1; 0.10% phenol): significantly affected
- proliferation of Pseudomonas putida F1 (OD610) (Pseudomonas putida F1; 0.20% phenol): completely inhibited
- proliferation of Pseudomonas putida S12 (OD610) (Pseudomonas putida S12; 0.10% phenol): significantly affected
- proliferation of Pseudomonas putida S12 (OD610) (Pseudomonas putida S12; 0.20% phenol): completely inhibited
- proliferation of Corynebacterium glutamicum (OD610) ([1]; 0.16% phenol): hardly affected
- proliferation of Corynebacterium glutamicum (OD610) ([1]; 0.20% phenol): favorable growth
- proliferation of Corynebacterium glutamicum (OD610) ([1]; 0.24% phenol): able to proliferate

From patent US8846367B2, “Coryneform bacterium transformant and process for producing phenol using the same” (Green Phenol Development Co., Ltd., priority 2010, dated 2014)
